Patent US6605595B1, “Avermectin derivatives” (The Kitasato Institute, priority 1999, dated 2003)

System: Adult Musca domestica of WHO(N) species
Test: Filter test on flies (Musca domestica), ingestion/contact method
Assay type: in vivo
Details: time of reading not stated (1, 3, 5 and 24 hours)
Protocol: Filter test on flies (Musca domestica)—ingestion/contact method
Test animals: Adult Musca domestica of WHO(N) species
In order to prepare a suitable formulation a solution of active compound is prepared froom 20 mg of active compound and 1 ml of DMSO. The active compound solution is diluted with water to the concentration required in each case.
2 ml of this preparation of active compound are pipetted onto filter paper discs (of a diameter of 9.5 cm) contained in Petri dishes of the appropriate size. After drying the filter discs, 100 μl of the active compound formulation and 400 μl of a sugar solution are poured onto a block of household sponge cloth measuring 1 cm^2 and placed in a blister well on the filter disc. 25 CO2-intoxicated test animals are transferred to the Petri dishes and covered.
After 1, 3, 5 and 24 hours the activity of the active compound preparation is determined. 100% means that all of the flies have been destroyed; 0% means that none of the flies have been destroyed.

Question: Which results are given for `CCC(C)C1OC2(C=CC1C)CC1CC(CC=C(C)C(OC3CC(OC)C(OC4CC(OC)C(=CCNOC)C(C)O4)C(C)O3)C(C)C=CC=C3COC4C(O)C(C)=CC(C(=O)O1)C34O)O2` (centres unmarked) [Compound 69]?
Answer: activity (100% = all of the flies destroyed) (10 ppm): 50%; activity (100% = all of the flies destroyed) (100 ppm): 100%
